Reference: US10251394B2, “Molecules having pesticidal utility, and intermediates, compositions, and processes, related thereto” (Dow AgroSciences LLC, priority 2016, dated 2019)

Assays:
[1] = tested on: Beet Armyworm (Spodoptera exigua); assay: Bioassay on Beet Armyworm (BAW), 128-well diet tray assay; format: in vivo; conditions: for mortality at 0.05 µg/cm2 / mortality at 0.5 µg/cm2 / mortality at 5 µg/cm2: 168 h, second instar larvae, five to seven days, read-out: BAW Percent control (or mortality); for mortality at 0.05 µg/cm2: 0.05 μg/cm^2 on artificial diet; for mortality at 0.5 µg/cm2: 0.5 μg/cm^2 on artificial diet; for mortality at 5 µg/cm2: 5 μg/cm^2 on artificial diet; for pest or weed control at 50 µg/cm2: Beet Armyworm, Table ABC, read-out: BAW rating
Description: (§1) Example A: Bioassays on Beet Armyworm (Spodoptera Exigua, LAPHEG) (“BAW”), Corn Earworm (Helicoverpa Zea, HELIZE) (“CEW”), and Cabbage Looper (Trichoplusia Ni, TRIPNI) (“CL”)
(§2) Certain molecules disclosed in this document were tested against BAW, CEW, and CL using procedures described in the following examples. In the reporting of the results, the “BAW, CEW, & CL Rating Table” was used (See Table Section).
Bioassays on BAW were conducted using a 128-well diet tray assay. One to five second instar BAW larvae were placed in each well (3 mL) of the diet tray that had been previously filled with 1 mL of artificial diet to which 50 μg/cm^2 of the test molecule (dissolved in 50 μL of 90:10 acetone-water mixture) had been applied (to each of eight wells) and then allowed to dry. Trays were covered with a clear self-adhesive cover and held at 25° C., 14:10 light-dark for five to seven days. Percent mortality was recorded for the larvae in each well; activity in the eight wells was then averaged. The results are indicated in the table entitled “Table ABC: Biological Results” (See Table Section).
(§3) Bioassays on BAW and CL were conducted according to the procedures outlined in Example A: Bioassays on Beet Armyworm (“BAW”) and Cabbage Looper (“CL”) using the indicated concentrations.

[2] = tested on: Cabbage Looper (Trichoplusia ni); assay: Bioassay on Cabbage Looper (CL), 128-well diet tray assay; format: in vivo; conditions: for mortality at 0.05 µg/cm2 / mortality at 0.5 µg/cm2 / mortality at 5 µg/cm2: 168 h, second instar larvae, five to seven days, read-out: CL Percent control (or mortality); for mortality at 0.05 µg/cm2: 0.05 μg/cm^2 on artificial diet; for mortality at 0.5 µg/cm2: 0.5 μg/cm^2 on artificial diet; for mortality at 5 µg/cm2: 5 μg/cm^2 on artificial diet; for pest or weed control at 50 µg/cm2: Cabbage Looper, Table ABC, read-out: CL rating
Description: as §1, §2
Bioassays on CL were conducted using a 128-well diet tray assay. One to five second instar CL larvae were placed in each well (3 mL) of the diet tray that had been previously filled with 1 mL of artificial diet to which 50 μg/cm^2 of the test molecule (dissolved in 50 μL of 90:10 acetone-water mixture) had been applied (to each of eight wells) and then allowed to dry. Trays were covered with a clear self-adhesive cover and held at 25° C., 14:10 light-dark for five to seven days. Percent mortality was recorded for the larvae in each well; activity in the eight wells was then averaged. The results are indicated in the table entitled “Table ABC: Biological Results” (See Table Section).
as §3

Structure (SMILES)	mortality at 0.05 µg/cm2 [1] [%]	mortality at 0.5 µg/cm2 [1] [%]	mortality at 5 µg/cm2 [1] [%]	pest or weed control at 50 µg/cm2 [1] [%]	mortality at 0.05 µg/cm2 [2] [%]	mortality at 0.5 µg/cm2 [2] [%]	mortality at 5 µg/cm2 [2] [%]	pest or weed control at 50 µg/cm2 [2] [%]
O=C(CNC(=O)c1ccc(/C(F)=C/C(c2cc(Cl)c(Cl)c(Cl)c2)C(F)(F)F)cc1C(F)(F)F)NCC(F)(F)F (stereo not drawn) [F1, (Z)—N-(2-oxo-2-((2,2,2-trifluoroethyl)amino)ethyl)-4-(1,4,4,4-tetrafluoro-3-(3,4,5-trichlorophenyl)but-1-en-1-yl)-2-(trifluoromethyl)benzamide]	100	100	100	50 to 100	100	100	100	50 to 100
C[C@@H](NC(=O)c1ccc(/C(F)=C/C(c2cc(Cl)c(Cl)c(Cl)c2)C(F)(F)F)cc1C(F)(F)F)C(=O)NCC(F)(F)F (stereo partly drawn) [F2, N—((R)-1-Oxo-1-((2,2,2-trifluoroethyl)amino)propan-2-yl)-4-((Z)-1,4,4,4-tetrafluoro-3-(3,4,5-trichlorophenyl)but-1-en-1-yl)-2-(trifluoromethyl)benzamide]	100	100	100	50 to 100	100	100	100	50 to 100
O=C(NC1(C(=O)NCCC2CC2)CC1)c1ccc(/C(F)=C/C(c2cc(Cl)c(Cl)c(Cl)c2)C(F)(F)F)cc1C(F)(F)F (stereo not drawn) [F4, (Z)—N-(1-((2-cyclopropylethyl)carbamoyl)cyclopropyl)-4-(1,4,4,4-tetrafluoro-3-(3,4,5-trichlorophenyl)but-1-en-1-yl)-2-(trifluoromethyl)benzamide]	–	–	–	50 to 100	–	–	–	50 to 100
C=CCNC(=O)C1(NC(=O)c2ccc(/C(F)=C/C(c3cc(Cl)c(Cl)c(Cl)c3)C(F)(F)F)cc2C(F)(F)F)CC1 (stereo not drawn) [F5, (Z)—N-(1-(Allylcarbamoyl)cyclopropyl)-4-(1,4,4,4-tetrafluoro-3-(3,4,5-trichlorophenyl)but-1-en-1-yl)-2-(trifluoromethyl)benzamide]	–	–	–	50 to 100	–	–	–	50 to 100
Cc1cc(/C(F)=C/C(c2cc(Cl)c(Cl)c(Cl)c2)C(F)(F)F)ccc1C(=O)NCC(=O)NCC(F)(F)F (stereo not drawn) [F6, (Z)-2-Methyl-N-(2-oxo-2-((2,2,2-trifluoroethyl)amino)ethyl)-4-(1,4,4,4-tetrafluoro-3-(3,4,5-trichlorophenyl)but-1-en-1-yl)benzamide]	100	100	–	50 to 100	100	100	–	50 to 100
Cc1cc(/C(F)=C/C(c2cc(Cl)c(Cl)c(Cl)c2)C(F)(F)F)ccc1C(=O)N[C@H](C)C(=O)NCC(F)(F)F (stereo partly drawn) [F7, 2-Methyl-N—((R)-1-oxo-1-((2,2,2-trifluoroethyl)amino)propan-2-yl)-4-((Z)-1,4,4,4-tetrafluoro-3-(3,4,5-trichlorophenyl)but-1-en-1-yl)benzamide]	100	100	–	50 to 100	100	100	–	50 to 100
Cc1cc(/C(F)=C/C(c2cc(Cl)c(Cl)c(Cl)c2)C(F)(F)F)ccc1C(=O)NC1(C(=O)NCC(F)(F)F)CC1 (stereo not drawn) [F8, (Z)-2-Methyl-4-(1,4,4,4-tetrafluoro-3-(3,4,5-trichlorophenyl)but-1-en-1-yl)-N-(1-((2,2,2-trifluoroethyl)carbamoyl)cyclopropyl)benzamide]	–	–	–	50 to 100	–	–	–	50 to 100
C=CCNC(=O)C1(NC(=O)c2ccc(/C(F)=C/C(c3cc(Cl)c(Cl)c(Cl)c3)C(F)(F)F)cc2C)CC1 (stereo not drawn) [F9, (Z)—N-(1-(Allylcarbamoyl)cyclopropyl)-2-methyl-4-(1,4,4,4-tetrafluoro-3-(3,4,5-trichlorophenyl)but-1-en-1-yl)benzamide]	–	–	–	50 to 100	–	–	–	50 to 100
Cc1cc(/C(F)=C/C(c2cc(Cl)c(Cl)c(Cl)c2)C(F)(F)F)ccc1C(=O)NC1(C(=O)NCCC2CC2)CC1 (stereo not drawn) [F10, (Z)—N-(1-((2-Cyclopropylethyl)carbamoyl)cyclopropyl)-2-methyl-4-(1,4,4,4-tetrafluoro-3-(3,4,5-trichlorophenyl)but-1-en-1-yl)benzamide]	–	–	–	50 to 100	–	–	–	50 to 100
C=CCNC(=O)[C@@H](C)NC(=O)c1ccc(/C(F)=C/C(c2cc(Cl)c(Cl)c(Cl)c2)C(F)(F)F)cc1C(F)(F)F (stereo partly drawn) [F11, N—((R)-1-(Allylamino)-1-oxopropan-2-yl)-4-((Z)-1,4,4,4-tetrafluoro-3-(3,4,5-trichlorophenyl)but-1-en-1-yl)-2-(trifluoromethyl)benzamide]	–	–	–	50 to 100	–	–	–	50 to 100
C[C@@H](NC(=O)c1ccc(/C(F)=C/C(c2cc(Cl)c(Cl)c(Cl)c2)C(F)(F)F)cc1C(F)(F)F)C(=O)NCCC1CC1 (stereo partly drawn) [F12, N—((R)-1-((2-Cyclopropylethyl)amino)-1-oxopropan-2-yl)-4-((Z)-1,4,4,4-tetrafluoro-3-(3,4,5-trichlorophenyl)but-1-en-1-yl)-2-(trifluoromethyl)benzamide]	–	–	–	50 to 100	–	–	–	50 to 100
C[C@@H](NC(=O)c1ccc(/C(F)=C/C(c2cc(Cl)c(Cl)c(Cl)c2)C(F)(F)F)cc1C(F)(F)F)C(=O)N(C)CC(F)(F)F (stereo partly drawn) [F13, N—((R)-1-(Methyl(2,2,2-trifluoroethyl)amino)-1-oxopropan-2-yl)-4-((Z)-1,4,4,4-tetrafluoro-3-(3,4,5-trichlorophenyl)but-1-en-1-yl)-2-(trifluoromethyl)benzamide]	–	–	–	50 to 100	–	–	–	50 to 100
C=CCNC(=O)[C@@H](C)NC(=O)c1ccc(/C(F)=C/C(c2cc(Cl)c(Cl)c(Cl)c2)C(F)(F)F)cc1C (stereo partly drawn) [F14, N—((R)-1-(Allylamino)-1-oxopropan-2-yl)-2-methyl-4-((Z)-1,4,4,4-tetrafluoro-3-(3,4,5-trichlorophenyl)but-1-en-1-yl)benzamide]	–	–	–	50 to 100	–	–	–	50 to 100
Cc1cc(/C(F)=C/C(c2cc(Cl)c(Cl)c(Cl)c2)C(F)(F)F)ccc1C(=O)N[C@H](C)C(=O)NCCC1CC1 (stereo partly drawn) [F15, N—((R)-1-((2-Cyclopropylethyl)amino)-1-oxopropan-2-yl)-2-methyl-4-((Z)-1,4,4,4-tetrafluoro-3-(3,4,5-trichlorophenyl)but-1-en-1-yl)benzamide]	–	–	–	50 to 100	–	–	–	50 to 100
CCCCNC(=O)[C@@H](C)NC(=O)c1ccc(/C(F)=C/C(c2cc(Cl)c(Cl)c(Cl)c2)C(F)(F)F)cc1C(F)(F)F (stereo partly drawn) [F16, N—((R)-1-(Butylamino)-1-oxopropan-2-yl)-4-((Z)-1,4,4,4-tetrafluoro-3-(3,4,5-trichlorophenyl)but-1-en-1-yl)-2-(trifluoromethyl)benzamide]	–	–	–	50 to 100	–	–	–	50 to 100
C[C@@H](NC(=O)c1ccc(/C(F)=C\C(c2cc(Cl)c(Cl)c(Cl)c2)C(F)(F)F)cc1C(F)(F)F)C(=O)NCC(F)(F)F (stereo partly drawn) [F17, N—((R)-1-oxo-1-((2,2,2-trifluoroethyl)amino)propan-2-yl)-4-((E)-1,4,4,4-tetrafluoro-3-(3,4,5-trichlorophenyl)but-1-en-1-yl)-2-(trifluoromethyl)benzamide]	–	–	–	50 to 100	–	–	–	50 to 100
C[C@@H](NC(=O)c1ccc(/C(F)=C/C(c2cc(Cl)c(Cl)c(Cl)c2)C(F)(F)F)cc1Br)C(=O)NCC(F)(F)F (stereo partly drawn) [F18, 2-Bromo-N—((R)-1-oxo-1-((2,2,2-trifluoroethyl)amino)propan-2-yl)-4-((Z)-1,4,4,4-tetrafluoro-3-(3,4,5-trichlorophenyl)but-1-en-1-yl)benzamide]	100	100	100	50 to 100	100	100	100	50 to 100
